Source: paper PMC8140105 (Scientific Reports, 2021)

Assay: Capillary depletion
Assay type: in vivo, ICR-CD-1 mice
Conditions: 125I-labelled, i.v., mice, 10 min after injection, n = 2
Protocol: Briefly, 0.1 µmol of the lyophilized peptide was dissolved in 100 µL of phosphate buffer (pH 7.4, 25 mM). A Iodo-Gen coated tube (Thermo Scientific, Merelbeke, Belgium) was first of all rinsed with 1 mL of phosphate buffer. Subsequently, 50 µL of sodium iodide solution (1.1 µmol/mL) and 1 mCi of Na^125I solution (Perking Elmer, Zaventem, Belgium) were transferred into this Iodo-Gen coated tube. The oxidation reaction was allowed to proceed for six minutes at room temperature, after which the iodonium solution was transferred to 50 µL of peptide solution (1 mM). The iodination reaction of the peptide was allowed to proceed for another six minutes at room temperature. Finally, the iodinated peptide was purified using a silver filter (Thermo Scientific, Merelbeke, Belgium).
We performed capillary depletion to determine whether the peptides, taken up by the brain, completely crossed the capillary wall into the tissue rather than just being trapped by and in the endothelium. […] Subsequently, the brain was collected, weighed and the radioactivity measured in the gamma counter for 5 min. […] The resulting solution was weighed and centrifuged in a swinging bucket rotor at 5400g for 30 min at 4 °C, after measuring the radioactivity in the gamma counter. Pellet (capillaries) and supernatant (parenchyma and fat tissues) were also collected, weighed and measured in a gamma counter. […]

SDLPFEH [PapRIV, heptapeptide (SDLPFEH) quorum sensing peptide originating from the Bacillus cereus group; synthetic, purchased from GL Biochem]
Capillary fraction: 13.08% | Parenchymal fraction: 86.92%
